From patent publication EP4772520A1, “NOVEL PRODRUG-TYPE ANTICANCER AGENT TARGETING CANCER-SPECIFIC ENZYME ACTIVITY” (priority 2023, dated 2025)
“And” between values parts separate entries of the source, which are not always exact repeats. Equal entries are not always repeated.

What was measured:
JFCR39 cell panel = assay: Cytotoxicity test using JFCR39 cell panel (sulforhodamine B); assay type: cell-based; conditions: 39 cell lines, 48 hours
Procedure: The cancer cells were seeded in a 96 well plate, and on the next day, the drug solution was added according to the dilution series, and after culturing for 2 days (48 hours), cell proliferation was determined by colorimetric assay using sulforhodamine B.
Each cancer cell was seeded in a 96 well plate, and on the next day, the drug solution was added according to the dilution series, and after culturing for 2 days (48 hours), cell proliferation was measured by colorimetric quantification with sulforhodamine B.

[1] = Single dose toxicity test 1 (intravenous); assay type: in vivo, Jcl: ICR mice (female)
Procedure: Single dose toxicity was evaluated by intravenously administering 200 mg/kg each of the novel prodrug-type anticancer agents SN38-βGal and SN38-βGlcNAc to Jcl: ICR mice (female).

[2] = Procedure: For the Vehicle group, a corresponding amount of DMSO was administered.
After blood was collected on day 22 and then euthanized, the liver, kidney, and spleen were taken out and their weights were compared.

[3] = Evaluation of locomotion after administration of drug; assay type: in vivo; conditions: intravenous administration of 40 mg/kg, n = 4, 15 minutes from 1 minute after administration
Procedure: The momentum after drug administration was compared (n = 4).
Fig. 22 illustrates results of locomotion evaluation after drug administration. a of Fig. 22 illustrates the head movement distance for 15 minutes from 1 minute after administration in each group. The drug is administered intravenously at 40 mg/kg (n = 4). b of Fig. 22 illustrates an example of a movement trajectory for 15 minutes from 1 minute after administration in each group. c of Fig. 22 illustrates an example of a movement distance for each time from 1 minute after administration in each group.

in vivo = assay: in vivo
Excerpt: A specific test procedure is shown below. • (1) Three marmosets (6 males in total) in each of the SN38-βGal and SN38-βGlcNAc administration groups were sequentially retained using a retention device, and a tail of the administration site was shaved. • (2) The base of the tail from the injection site was avascularized to cause blood vessels to become engorged. Veins running on both left and right sides of the tail were checked, the puncture site was disinfected with alcohol cotton, and then administration was performed with a 27 G injection needle using one of the left and right blood vessels. For administration, 1.0 mg/mL of prepared administration solution of SN38-βGal or SN38-βGlcNAc was intravenously administered at an injection rate of 350 µL/min (about 11 minutes: due to different body weight, the time τ actually required for the injection was accurately recorded for each individual) by an infusion pump at a dose of 10 mg/10 mL/kg. • (3) Immediately after the start of infusion administration, about 220 µL of blood was collected with a heparinized syringe at 5, 15, 30, 45 minutes, 1, 2, 3, and 6 hours, and centrifuged at 1200 G and 4°C for 15 minutes to collect plasma. • (4) After the plasma was dispensed into the microtube, 100 µL of the plasma was accurately taken, and a 200 µM of inhibitor N-(n-nonyl) deoxygalactonoijirimycin solution in the SN38-βGal administration group, a 200 µM of inhibitor PUGNAc solution in the SN38-βGlcNAc administration group, and 100 µL of each were added to the microtube dispensed in advance and mixed quickly.

[4] = system: lung squamous carcinomas cell H226; assay: Cytotoxicity test by MTT assay method (H226 cells); assay type: cell-based
SHP77-luc = assay: Tumor proliferation suppression test in small cell lung cancer orthotopic model; assay type: in vivo, mice; conditions: 40 mg/kg i.v. twice a week for 4 weeks
Procedure: The tumor proliferation suppression effect of the developed prodrugs SN38-βGal and SN38-βGlcNAc in a small cell lung cancer model was evaluated. The model was created by orthotopically transplanting SHP77-luc in which luciferase was expressed in a small cell lung cancer cell line SHP77 relative to BALB/cAJcl-nu/nu into the lung. The Vehicle (DMSO administration) group, the SN38-βGal administration group, and the SN38-βGlcNAc administration group were n = 6, respectively. The administration form was intravenous administration (i.v.), and the dose was 40 mg/kg, and administration was performed twice a week for 4 weeks. The tumor burden was evaluated by the luciferin/luciferase luminescence value.
A specific procedure of the therapeutic experiment is shown below. • (1) Model mice were created by the following procedure using 20 BALB/cAJcl-nu/nu (7 weeks old/female) mice. 150 to 200 µL of an anesthetic (a mixture of 3 kinds of Domitor + Betorphal + Mitazolam) was intraperitoneally administered to perform anesthesia. The skin of the left chest was incised, the subcutaneous tissue was detached, and then SHP77 luc cell suspension 2 × 10^7 cells/mL (50 µL, 5% Matrigel) was injected from the intercostal pleura to the left lung. The skin was sutured at 3 sites, and 150 to 200 µL of an anti-sedan (atipamezol) solution was intraperitoneally administered to check awakening of the mice. • (2) After 3 weeks, the formation of cancer was confirmed by luciferin/luciferase luminescence, and the administration of the drug was started. The drug was prepared by dissolving 200 mM of DMSO stock in PBS, and was administered from the tail vein in a total amount of 100 µL.3 mg (200 µL) of luciferin was intraperitoneally administered, and anesthetized with isoflurane. Thereafter, the luminescent value at 15 minutes after administration was measured by an in vivo imaging device. • (3) On the day of evaluation, the tumor burden was evaluated by the body weight and the luciferin/luciferase luminescence.

[5] = 200 mg/kg single intravenous administration, n=10
[6] = 40 mg/kg i.v. repeated, vs Vehicle
[7] = prodrug, 10 mg/kg i.v., individual marmosets, 10 mg/kg

## CCc1c2c(nc3ccc(O[C@@H]4O[C@H](CO)[C@H](O)[C@H](O)[C@H]4O)cc13)-c1cc3c(c(=O)n1C2)COC(=O)[C@]3(O)CC [SN38-βGal]
JFCR39 cell panel
  suppression of cell proliferation: suppressed proliferation of almost all cancer cells
JFCR39 cell panel; comparison with SN38 and CPT-11
  GI50 value: close to SN38 and lower than CPT-11
[1]; 200 mg/kg intravenous, improved in several hours
  symptoms immediately after administration: reduced locomotor activity, tremor, and prone states were found in more than half of the mice in both groups
[1]; [5]
  Survival rate (%) (after 10 days): 100%
  Survival rate (%) (just after administration): 100%
[1]; mouse, in vivo, iv, single intravenous administration, estimated
  LD50 at 240 h: ≥ 200 mg/kg
[2]; 40 mg/kg i.v. repeated
  Histological findings in kidney: organ damage to the kidney was not observed
  Histological findings in large intestine: the side effects were very mild as compared with CPT-11
  Histological findings in liver: organ damage to the liver was not observed
  Histological findings in small intestine: the side effects were very mild as compared with CPT-11
  Histological findings in spleen: organ damage to the spleen was very mild
[2]; 40 mg/kg i.v. repeated, summary
  histological findings (organ damage): no organ damage was observed in the small intestine, large intestine, kidney, liver, and spleen
[2]; [6]
  biochemical test findings: a slight decrease in AST and ALT values was observed
  blood cell test findings: a slight increase in eosinophils and a decrease in basophils were estimated
[2]; 40 mg/kg i.v. three times a week for three weeks, at maximum by the final day
  body weight loss: significant body weight loss was not observed
[2]; blood cell classification, Average, 40 mg/kg i.v. repeated
  RETICULOCYTE COUNT: 220300 µL⁻¹
[3]
  locomotion after drug administration: these decreases in the locomotion were hardly observed
In vivo; 10 mg/kg i.v.
  abnormalities after drug administration: remarkable abnormalities, vomiting, and the like were not found in any individual
In vivo; marmoset, in vivo, iv, 10 mg/kg, AUC0-6h (μg・h/mL), prodrug, 11 min infusion, N=3, average
  AUC(0-t) at 6 h: 52700 ng·h/mL
In vivo; marmoset, in vivo, iv, 10 mg/kg, CLtot (mL/min/kg), prodrug, 11 min infusion, N=3, average
  clearance: 3.5 mL/min/kg
In vivo; marmoset, in vivo, iv, 10 mg/kg, Vd (L/kg), prodrug, 11 min infusion, N=3, average
  Vd: 0.215 L/kg
In vivo; marmoset, in vivo, iv, 10 mg/kg, Vd (L/kg), prodrug, 10 mg/kg i.v., individual marmosets
  Vd: 0.205 L/kg
In vivo; marmoset, in vivo, iv, 10 mg/kg, blood half-life, prodrug, 10 mg/kg i.v., 11 minutes infusion
  half-life: 58.3 min
In vivo; marmoset, in vivo, iv, 10 mg/kg, t1/2 (h), prodrug, 11 min infusion, N=3, average
  half-life: 58.3 min
In vivo; marmoset, in vivo, iv, 10 mg/kg, t1/2 (h), prodrug, 10 mg/kg i.v., individual marmosets
  half-life: 49.9 min
In vivo; [7]
  CLtot: 3.4 mL/min/kg and 2.2 mL/min/kg and 4.8 mL/min/kg
  Vd: 0.169 L/kg and 0.271 L/kg
  t1/2: 58.7 min and 66.3 min
In vivo; prodrug, 10 mg/kg i.v., individual marmosets, 10 mg/kg, 360 min
  AUC0-6h (μg・h/mL): 48.57 μg・h/mL and 75.13 μg・h/mL and 34.47 μg・h/mL
[4]; H226, inhibitor of β-galactosidase, N-(n-nonyl) deoxygalactonoijirimycin, 40 µM
  cytotoxicity in the presence of inhibitor: cytotoxicity was significantly reduced
[4]; Homo sapiens, NCI-H226, 72 h, read-out: IC50 value
  IC50: 1.39 µM
SHP77-luc
  body weight: no body weight loss was found during the treatment period
SHP77-luc; n = 6, vs Vehicle
  tumor growth (luciferin/luciferase luminescence): significant suppression of tumor growth was confirmed
